Data on 37 molecules can be found in patent US9290485B2, “N-((6-amino-pyridin-3-yl)methyl)-heteroaryl-carboxamides” (NOVARTIS AG, priority 2010, dated 2016).

Molecules are shown by their SMILES. pIC50: −log10 of the molar value.

human plasma kallikrein, sequence (P03952 whole entry, looked up): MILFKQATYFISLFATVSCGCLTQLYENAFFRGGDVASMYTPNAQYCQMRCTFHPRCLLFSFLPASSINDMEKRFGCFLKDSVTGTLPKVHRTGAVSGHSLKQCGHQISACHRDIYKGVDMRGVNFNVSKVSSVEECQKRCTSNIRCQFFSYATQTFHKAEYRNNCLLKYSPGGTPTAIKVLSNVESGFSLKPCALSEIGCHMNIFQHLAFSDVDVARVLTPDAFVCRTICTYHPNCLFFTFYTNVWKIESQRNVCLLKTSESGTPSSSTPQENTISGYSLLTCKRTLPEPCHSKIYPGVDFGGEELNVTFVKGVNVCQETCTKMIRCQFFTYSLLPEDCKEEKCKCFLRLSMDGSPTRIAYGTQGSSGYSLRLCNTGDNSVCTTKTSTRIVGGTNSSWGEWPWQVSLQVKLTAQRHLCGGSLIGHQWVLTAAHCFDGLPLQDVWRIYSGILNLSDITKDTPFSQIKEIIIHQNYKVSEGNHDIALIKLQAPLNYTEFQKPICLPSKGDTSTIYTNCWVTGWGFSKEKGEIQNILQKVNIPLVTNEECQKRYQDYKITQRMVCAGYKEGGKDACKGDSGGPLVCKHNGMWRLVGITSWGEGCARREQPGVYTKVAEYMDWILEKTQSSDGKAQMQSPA
human plasma kallikrein, sequence (P03952 whole entry partner, looked up): as the sequence (P03952 whole entry, looked up) above

The experiment addresses human plasma kallikrein (Homo sapiens (Human), UniProt P03952). The conditions noted are these: human plasma kallikrein 25 pM, substrate 0.5 uM, 1 hour pre-incubation at room temperature, read at t=60 min.
As to `Cc1cc(N)nc(C)c1CNC(=O)c1cnn(Cc2cc3ccccc3o2)n1` [Example 44, N-((6-amino-2,4-dimethylpyridin-3-yl)methyl)-2-(benzofuran-2-ylmethyl)-2H-1,2,3-triazole-4-carboxamide], the negative logarithm of the IC50 (pIC50) is 6.67.
On to `Cc1cc(N)nc(C)c1CNC(=O)c1cn(Cc2ccc(Oc3ccccc3)cc2)nn1` [Example 38, N-((6-amino-2,4-dimethylpyridin-3-yl)methyl)-1-(4-phenoxybenzyl)-1H-1,2,3-triazole-4-carboxamide], for which the negative logarithm of the IC50 (pIC50) was 7.72.
Next, `Cc1cc(N)nc(C)c1CNC(=O)c1ncc(Cc2ccccc2)o1` [Example 7, N-((6-amino-2,4-dimethylpyridin-3-yl)methyl)-5-benzyloxazole-2-carboxamide]: 5.69; `Cc1cn2cc(Cn3cc(C(=O)NCc4c(C)cc(N)nc4C)cn3)ccc2n1` [Example 169, N-((6-amino-2,4-dimethylpyridin-3-yl)methyl)-1-((2-methylimidazo[1,2-a]pyridin-6-yl)methyl)-1H-pyrazole-4-carboxamide]: 8.52.
For `Cc1cc(N)nc(C)c1CNC(=O)c1ccn(Cc2ccccc2)c1` [Example 70, N-((6-amino-2,4-dimethylpyridin-3-yl)methyl)-1-benzyl-1H-pyrrole-3-carboxamide] the value was 5.39.
For `Cc1nc(N)cc(Cl)c1CNC(=O)c1cnn(Cc2ccccc2)c1` [Example 144, N-((6-amino-4-chloro-2-methylpyridin-3-yl)methyl]-1-benzyl-1H-pyrazole-4-carboxamide] the value was 4.37.
In turn, `Cc1cc(N)nc(C)c1CNC(=O)c1n[nH]c(Cc2ccccc2)n1` [Example 113, N-((6-amino-2,4-dimethylpyridin-3-yl)methyl)-5-benzyl-1H-1,2,4-triazole-3-carboxamide] had a negative logarithm of the IC50 (pIC50) of 5.24.
Consider `Cc1cc(N)nc(C)c1CNC(=O)c1cc(C)n(C(C)c2ccccc2)c1C` (stereo not shown) [Example 51, N-((6-amino-2,4-dimethylpyridin-3-yl)methyl)-2,5-dimethyl-1-(1-phenylethyl)-1H-pyrrole-3-carboxamide], for which the negative-log IC50 (pIC50) was 5.15.
On to `Cc1cc(N)nc(C)c1CNC(=O)c1cnn(Cc2cccc(C(=O)N3CCCCC3)c2)c1` [Example 119, N-((6-amino-2,4-dimethylpyridin-3-yl)methyl)-1-(3-(piperidine-1-carbonyl)benzyl)-1H-pyrazole-4-carboxamide], for which the negative-log IC50 (pIC50) is 6.54. This pIC50 lies 1.39 log units higher than the previous one.
As for `Cc1cc(N)nc(C)c1CNC(=O)c1cn(Cc2ncccn2)nn1` [Example 178, N-((6-Amino-2,4-dimethylpyridin-3-yl)methyl)-1-(pyrimidin-2-ylmethyl)-1H-1,2,3-triazole-4-carboxamide], the pIC50 was 4.17.
Next, `Cc1cc(N)nc(C)c1CNC(=O)c1cnn(Cc2ccccc2Cl)c1` [Example 87, N-((6-amino-2,4-dimethylpyridin-3-yl)methyl)-1-(2-chlorobenzyl)-1H-pyrazole-4-carboxamide]: 5.89; `Cc1cc(N)nc(C)c1CNC(=O)c1cn(Cc2ccccc2)c2ccccc12` [Example 108, N-((6-amino-2,4-dimethylpyridin-3-yl)methyl)-1-benzyl-1H-indole-3-carboxamide]: 6.10; `Cc1cc(N)nc(C)c1CNC(=O)c1cnn(Cc2cccc(Cl)c2)c1` [Example 92, N-((6-amino-2,4-dimethylpyridin-3-yl)methyl)-1-(3-chlorobenzyl)-1H-pyrazole-4-carboxamide]: 6.06.
Turning to `Cc1cc(N)nc(C)c1CNC(=O)c1cnn(CC2CCCCC2)c1` [Example 88, N-((6-amino-2,4-dimethylpyridin-3-yl)methyl)-1-(cyclohexylmethyl)-1H-pyrazole-4-carboxamide], the pIC50 is 5.74. Against the preceding molecule, the pIC50 is 0.32 log units lower.
Next, `Cc1cc(N)nc(C)c1CNC(=O)c1cnn(Cc2cccc(F)c2)c1` [Example 84, N-((6-amino-2,4-dimethylpyridin-3-yl)methyl)-1-(3-fluorobenzyl)-1H-pyrazole-4-carboxamide]: 6.30; `Cc1nc(N)cc(OC(F)F)c1CNC(=O)c1cnn(Cc2ccccc2)c1` [Example 180, N-((6-Amino-4-(difluoromethoxy)-2-methylpyridin-3-yl)methyl)-1-benzyl-1H-pyrazole-4-carboxamide]: under 4.00; `Cc1cc(N)nc(C)c1CNC(=O)c1cnn(Cc2ccc(CN3CCOCC3)cc2)c1` [Example 110, N-((6-amino-2,4-dimethylpyridin-3-yl)methyl)-1-(4-(morpholinomethyl)benzyl)-1H-pyrazole-4-carboxamide]: 6.60.
For `Cc1cc(N)nc(C)c1CNC(=O)c1cnn(Cc2ccc3[nH]c(C)c(C)c3c2)c1` [Example 75, N-((6-amino-2,4-dimethylpyridin-3-yl)methyl)-1-((2,3-dimethyl-1H-indol-5-yl)methyl)-1H-pyrazole-4-carboxamide] the value was 8.51.
Next, `COCCc1cccc(Cn2cc(C(=O)NCc3c(C)cc(N)nc3C)cn2)c1` [Example 71, N-((6-amino-2,4-dimethylpyridin-3-yl)methyl)-1-(3-(2-methoxyethyl)benzyl)-1H-pyrazole-4-carboxamide]: 6.72.
The molecule `Cc1cc(N)nc(C)c1CNC(=O)c1cn(Cc2ccccc2)nn1` [Example 21, N-((6-amino-2,4-dimethylpyridin-3-yl)methyl)-1-benzyl-1H-1,2,3-triazole-4-carboxamide] gave a negative-log IC50 (pIC50) of 5.60.
For `Cc1cc(N)nc(C)c1CNC(=O)c1cnn(Cc2csc(CC(=O)N(C)C)n2)c1` [Example 29, N-((6-amino-2,4-dimethylpyridin-3-yl)methyl)-1-((2-(2-(dimethylamino)-2-oxoethyl)thiazol-4-yl)methyl]-1H-pyrazole-4-carboxamide] the value was 6.61; for `Cc1cc(N)nc(C)c1CNC(=O)c1cnn(Cc2nc3ccccc3s2)c1` [Example 105, N-((6-amino-2,4-dimethylpyridin-3-yl)methyl)-1-(benzo[d]thiazol-2-ylmethyl)-1H-pyrazole-4-carboxamide], 6.77.
Next, `Cc1cc(N)nc(C)c1CNC(=O)c1cnn(S(=O)(=O)c2cccc(C#N)c2)c1` [Example 37, N-((6-amino-2,4-dimethylpyridin-3-yl)methyl)-1-(3-cyanophenylsulfonyl)-1H-pyrazole-4-carboxamide]: 5.28; `Cc1cc(N)nc(C)c1CNC(=O)c1cnn(Cc2ccc(OC(F)(F)F)cc2)c1` [Example 80, N-((6-amino-2,4-dimethylpyridin-3-yl)methyl)-1-(4-(trifluoromethoxy)benzyl)-1H-pyrazole-4-carboxamide]: 6.93.
Next, `Cc1cc(N)nc(C)c1CNC(=O)c1cnn(Cc2ccc(NC(=O)NC3CC3)cc2)c1` [Example 112, N-((6-amino-2,4-dimethylpyridin-3-yl)methyl)-1-(4-(3-cyclopropylureido)benzyl)-1H-pyrazole-4-carboxamide]: 6.64; `Cc1cc(N)nc(C)c1CNC(=O)c1cnn(Cc2ccc(COc3ccccc3)cc2)c1` [Example 89, N-((6-amino-2,4-dimethylpyridin-3-yl)methyl)-1-(4-(Phenoxymethyl)benzyl)-1H-pyrazole-4-carboxamide]: 8.22; `Cc1cc(C)n(-c2ccc(S(=O)(=O)n3ccc(C(=O)NCc4c(C)cc(N)nc4C)c3)cc2)n1` [Example 133, N-((6-amino-2,4-dimethylpyridin-3-yl)methyl)-1-(4-(3,5-dimethyl-1H-pyrazol-1-yl)phenylsulfonyl)-1H-pyrrole-3-carboxamide]: 6.71.
Molecule `Cc1nc(N)ccc1CNC(=O)c1cnn(Cc2cc(C(F)(F)F)c3cc(F)ccc3n2)c1` [Example 160, N-((6-amino-2-methylpyridin-3-yl)methyl)-1-((6-fluoro-4-(trifluoromethyl)quinolin-2-yl)methyl)-1H-pyrazole-4-carboxamide] showed a pIC50 of 7.70.
Next, `Cc1cc(N)ncc1CNC(=O)c1cnn(Cc2ccccc2)c1` [Example 138, N-((6-amino-4-methylpyridin-3-yl)methyl)-1-benzyl-1H-pyrazole-4-carboxamide]: 4.20; `Cc1cc(N)nc(C)c1CNC(=O)c1cnn(Cc2ccc(C#N)cc2)c1` [Example 82, N-((6-amino-2,4-dimethylpyridin-3-yl)methyl)-1-(4-cyanobenzyl)-1H-pyrazole-4-carboxamide]: 6.17.
Next, `Cc1cc(N)nc(C)c1CNC(=O)c1cn(Cc2ccc3ccccc3c2)nn1` [Example 40, N-((6-amino-2,4-dimethylpyridin-3-yl)methyl)-1-(naphthalen-2-ylmethyl)-1H-1,2,3-triazole-4-carboxamide]: 8.05; `Cc1cc(N)nc(C)c1CNC(=O)c1ncn(Cc2ccc(Cn3cncn3)cc2)n1` [Example 59]: 6.68; `COc1cc(Cn2cc(C(=O)NCc3c(C)cc(N)nc3C)cn2)cc(OC)c1` [Example 73, N-((6-amino-2,4-dimethylpyridin-3-yl)methyl)-1-(3,5-dimethoxybenzyl)-1H-pyrazole-4-carboxamide]: 6.94.
Next, `Cc1cc(N)nc(C)c1CNC(=O)c1cn(Cc2ccc(Oc3ccccc3)cc2)cn1` [Example 23, N-((6-amino-2,4-dimethylpyridin-3-yl)methyl)-1-(4-phenoxybenzyl)-1H-imidazole-4-carboxamide]: 8.05; `Cc1cc(N)nc(C)c1CNC(=O)c1coc(Oc2ccccc2)n1` [Example 78, N-((6-amino-2,4-dimethylpyridin-3-yl)methyl)-2-phenoxyoxazole-4-carboxamide]: 5.00.
`Cc1cc(N)nc(C)c1CNC(=O)c1cnn(Cc2ccc(Cn3ccccc3=O)cc2)c1` [Example 142, N-((6-amino-2,4-dimethylpyridin-3-yl)methyl)-1-(4-((2-oxopyridin-1(2H)-yl)methyl)benzyl)-1H-pyrazole-4-carboxamide] showed a pIC50 of 10.65.
As for `Cc1cc(N)nc(C)c1CNC(=O)c1cnn(Cc2ccc3c(c2)cc(C)n3C)c1` [Example 168, N-((6-Amino-2,4-dimethylpyridin-3-yl)methyl)-1-((1,2-dimethyl-1H-indol-5-yl)methyl)-1H-pyrazole-4-carboxamide], the negative-log IC50 (pIC50) is 10.00.
